{
  "source": "patent US8846928B2",
  "about": "(Portola Pharmaceuticals, Inc., priority 2010, dated 2014)",
  "note": "Several values for one entry are separate records, joined by “and”; a condition that tells them apart may be missing. Equal values may be shown once.",
  "data": [
    {"target": "T1, full length active recombinant SYK enzyme (Homo sapiens, UniProt P43405)", "T1 construct": "full length active recombinant SYK enzyme (Millipore, Calif.); purchased Millipore", "assay": "Inhibition of Syk tyrosine phosphorylation activity (LANCE TR-FRET kinase assay)", "format": "biochemical", "values": [
      {"smiles": "NC(=O)c1cc(F)c(N[C@@H]2CCCC[C@@H]2N)nc1Nc1cccc(-c2cncnc2)c1", "note": "[Example 57, 6-((1R,2S)-2-aminocyclohexylamino)-5-fluoro-2-(3-(pyrimidin-5-yl)phenylamino)nicotinamide]", "IC50": "1 to 10 nM"},
      {"smiles": "NC(=O)c1cc(F)c(N[C@@H]2CCCC[C@@H]2N)nc1Nc1cccc(OC2CCOCC2)c1", "note": "[Example 80, 6-((1R,2S)-2-aminocyclohexylamino)-5-fluoro-2-(3-(tetrahydro-2H-pyran-4-yloxy)phenylamino)nicotinamide]", "IC50": "1 to 10 nM"},
      {"smiles": "Cn1ccc2c(Nc3cc(N[C@@H]4CCCC[C@@H]4N)ccc3C(N)=O)cccc21", "note": "[Example 2, 4-((1R,2S)-2-aminocyclohexylamino)-2-(1-methyl-1H-indol-4-ylamino)benzamide]", "IC50": "100 to 1000 nM"},
      {"smiles": "C[C@H](N)CNc1nc(Nc2cccc(-c3ncccn3)c2)c(C(N)=O)cc1F", "note": "[Example 258, (S)-2-(3-(pyrimidin-2-yl)phenylamino)-6-(2-aminopropylamino)-5-fluoronicotinamide]", "IC50": "10 to 100 nM"},
      {"smiles": "CCn1ccc2c(Nc3nc(N[C@@H]4CCCC(F)(F)[C@@H]4N)c(F)cc3C(N)=O)cccc21", "note": "[Example 390, 6-((1R,2R)-2-amino-3,3-difluorocyclohexylamino)-2-(1-ethyl-1H-indol-4-ylamino)-5-fluoronicotinamide]", "IC50": "10 to 100 nM"},
      {"smiles": "CC[C@@H](Nc1ccc(C(N)=O)c(Nc2cnc3ccccc3c2)n1)C(N)=O", "note": "[Example 203, (R)-6-(1-amino-1-oxobutan-2-ylamino)-2-(quinolin-3-ylamino)nicotinamide]", "IC50": "1 to 10 nM"},
      {"smiles": "Cc1cccc(Nc2nc(N[C@@H]3CCOC[C@@H]3N)c(F)cc2C(N)=O)c1", "note": "[Example 385, 6-((3R,4R)-3-aminotetrahydro-2H-pyran-4-ylamino)-5-fluoro-2-(m-tolylamino)nicotinamide]", "IC50": "1 to 10 nM"},
      {"smiles": "C[C@H](N)CNc1nc(Nc2cccc(-n3nccn3)c2)c(C(N)=O)cc1F", "note": "[Example 257, (S)-2-(3-(2H-1,2,3-triazol-2-yl)phenylamino)-6-(2-aminopropylamino)-5-fluoronicotinamide]", "IC50": "1 to 10 nM"},
      {"smiles": "Cc1cccc(Nc2nc(N[C@@H]3CCCC[C@@H]3N)c(C#N)cc2C(N)=O)c1", "note": "[Example 107, 6-((1R,2S)-2-aminocyclohexylamino)-5-cyano 2-(m-tolylamino)nicotinamide]", "IC50": "1 to 10 nM"},
      {"smiles": "CC[C@@H](Nc1nc(Nc2cc(C)ns2)c(C(N)=O)cc1F)C(N)=O", "note": "[Example 239, (R)-6-(1-amino-1-oxobutan-2-ylamino)-5-fluoro-2-(3-methylisothiazol-5-ylamino)nicotinamide]", "IC50": "10 to 100 nM"},
      {"smiles": "CC(C)C[C@@H](Nc1nc(Nc2ccc3ncccc3c2)c(C(N)=O)cc1C#N)C(N)=O", "note": "[Example 124, (R)-6-(1-amino-4-methyl-1-oxopentan-2-ylamino)-2-(quinolin-6-ylamino)-5-cyanonicotinamide]", "IC50": "10 to 100 nM"},
      {"smiles": "NC(=O)c1cc(F)c(N[C@H]2[C@@H](N)CCCC2(F)F)nc1Nc1cccc(-c2ncccn2)c1", "note": "[Example 342, 6-((1S,6S)-6-amino-2,2-difluorocyclohexylamino)-5-fluoro-2-(3-(pyrimidin-2-yl)phenylamino)nicotinamide]", "IC50": "10 to 100 nM"},
      {"smiles": "Cc1cc(Nc2cc(NC[C@H](C)N)ccc2C(N)=O)sn1", "note": "[Example 31, (S)-4-(2-aminopropylamino)-2-(3-methylisothiazol-5-ylamino)benzamide]", "IC50": "10 to 100 nM"},
      {"smiles": "COC[C@H](N)CNc1ccc(C(N)=O)c(Nc2cc(C)ns2)c1", "note": "[Example 29, (R)-4-(2-amino-3-methoxypropylamino)-2-(3-methylisothiazol-5-ylamino)benzamide]", "IC50": "100 to 1000 nM"},
      {"smiles": "NC(=O)c1cc(F)c(N[C@@H]2CCCC[C@@H]2N)nc1Nc1cnc2cccnc2c1", "note": "[Example 183, 2-(1,5-naphthyridin-3-ylamino)-6-((1R,2S)-2-aminocyclohexylamino)-5-fluoronicotinamide]", "IC50": "1 to 10 nM"},
      {"smiles": "NC(=O)c1cc(F)c(N[C@@H]2CCCC[C@@H]2N)nc1Nc1cc(F)cc(F)c1", "note": "[Example 324, 6-((1R,2S)-2-aminocyclohexylamino)-2-(3,5-difluorophenylamino)-5-fluoronicotinamide]", "IC50": "1 to 10 nM"},
      {"smiles": "CC[C@@H](Nc1nc(Nc2cccc(OC)c2)c(C(N)=O)cc1F)C(N)=O", "note": "[Example 231, (R)-6-(1-amino-1-oxobutan-2-ylamino)-5-fluoro-2-(3-methoxyphenylamino)nicotinamide]", "IC50": "10 to 100 nM"},
      {"smiles": "Cc1cc(F)cc(Nc2nc(N[C@@H]3CCCC[C@@H]3N)c(F)cc2C(N)=O)c1", "note": "[Example 321, 6-((1R,2S)-2-aminocyclohexylamino)-5-fluoro-2-(3-fluoro-5-methylphenylamino)nicotinamide]", "IC50": "< 1 nM"},
      {"smiles": "Cn1ncc2c(Nc3nc(N[C@@H]4CCCC[C@@H]4N)c(F)cc3C(N)=O)cccc21", "note": "[Example 136, 2-(1-methyl-1H-indazol-4-ylamino)-6-((1R,2S)-2-aminocyclohexylamino)-5-fluoronicotinamide]", "IC50": "1 to 10 nM"},
      {"smiles": "NC(=O)c1ccc(N[C@@H]2CCCC[C@@H]2N)nc1Nc1ccc2ccncc2c1", "note": "[Example 137, 2-(isoquinolin-7-ylamino)-6-((1R,2S)-2-aminocyclohexylamino)nicotinamide]", "IC50": "1 to 10 nM"},
      {"smiles": "NC(=O)c1ccc(N[C@@H]2CCCC[C@@H]2N)nc1Nc1cncc(F)c1", "note": "[Example 179]", "IC50": "1 to 10 nM"},
      {"smiles": "CC[C@@H](Nc1nc(Nc2ccn3ccnc3c2)c(C(N)=O)cc1F)C(N)=O", "note": "[Example 230, (R)-6-(1-amino-1-oxobutan-2-ylamino)-5-fluoro-2-(H-imidazo[1,2-a]pyridin-7-ylamino)nicotinamide]", "IC50": "100 to 1000 nM"},
      {"smiles": "Cc1cccc(Nc2nc(N[C@@H]3CCCC[C@@H]3N)ccc2C(N)=O)c1", "note": "[Example 102, 6-((1R,2S)-2-aminocyclohexylamino)-2-(m-tolylamino)nicotinamide]", "IC50": "1 to 10 nM"},
      {"smiles": "Cc1cc(Nc2cc(N[C@H](Cc3ccc(O)cc3)C(N)=O)c(F)cc2C(N)=O)sn1", "note": "[Example 28, (R)-4-(1-amino-3-(4-hydroxyphenyl)-1-oxopropan-2-ylamino)-5-fluoro-2-(3-methylisothiazol-5-ylamino)benzamide]", "IC50": "100 to 1000 nM"},
      {"smiles": "NC(=O)c1cc(F)c(N[C@@H]2CCCC[C@@H]2N)nc1Nc1ccc2ccncc2c1", "note": "[Example 68, 6-((1R,2S)-2-aminocyclohexylamino)-5-fluoro-2-(isoquinolin-7-ylamino)nicotinamide]", "IC50": "1 to 10 nM"},
      {"smiles": "NC(=O)c1ccc(N[C@@H]2CCCC[C@@H]2N)nc1Nc1cnc2ncccc2c1", "note": "[Example 165]", "IC50": "1 to 10 nM"},
      {"smiles": "NC(=O)c1cc(F)c(N[C@@H]2CCCC[C@@H]2N)nc1Nc1cc(F)cc(Cl)c1", "note": "[Example 325, 6-((1R,2S)-2-aminocyclohexylamino)-2-(3-chloro-5-fluorophenylamino)-5-fluoronicotinamide]", "IC50": "1 to 10 nM"},
      {"smiles": "Cc1cc(C)cc(Nc2nc(N[C@@H]3CCCC[C@@H]3N)c(F)cc2C(N)=O)c1", "note": "[Example 320, 6-((1R,2S)-2-aminocyclohexylamino)-2-(3,5-dimethylphenylamino)-5-fluoronicotinamide]", "IC50": "1 to 10 nM"},
      {"smiles": "CC[C@H](CN)Nc1nc(Nc2cccc(-c3ncccn3)c2)c(C(N)=O)cc1F", "note": "[Example 92, (R)-6-(1-aminobutan-2-ylamino)-5-fluoro-2-(3-(pyrimidin-2-yl)phenylamino)nicotinamide]", "IC50": "10 to 100 nM"},
      {"smiles": "NC(=O)c1cc(F)c(N[C@@H]2CCCC[C@@H]2N)nc1Nc1ccc(-n2ccnc2)cc1", "note": "[Example 51, 2-(4-(1H-imidazol-1-yl)phenylamino)-6-((1R,2S)-2-aminocyclohexylamino)-5-fluoronicotinamide]", "IC50": "1 to 10 nM"},
      {"smiles": "CC(C)C[C@H](CN)Nc1nc(Nc2ccc3ncsc3c2)c(C(N)=O)cc1C#N", "note": "[Example 123, (R)-6-(1-amino-4-methylpentan-2-ylamino)-2-(benzo[d]thiazol-6-ylamino)-5-cyanonicotinamide]", "IC50": "1 to 10 nM"},
      {"smiles": "CC[C@@H](Nc1nc(Nc2ccc3cccnc3c2)c(C(N)=O)cc1F)C(N)=O", "note": "[Example 97, (R)-6-(1-amino-1-oxobutan-2-ylamino)-5-fluoro-2-(quinolin-7-ylamino)nicotinamide]", "IC50": "10 to 100 nM"},
      {"smiles": "Cn1cc(Nc2nc(N[C@@H]3CCCC[C@@H]3N)c(F)cc2C(N)=O)cn1", "note": "[Example 83, 6-((1R,2S)-2-aminocyclohexylamino)-5-fluoro-2-(1-methyl-1H-pyrazol-4-ylamino)nicotinamide]", "IC50": "10 to 100 nM"},
      {"smiles": "Cc1cccc(Nc2cc(N[C@@H]3CCCC[C@@H]3N)ccc2C(N)=O)c1", "note": "[Example 1, 4-((1R,2S)-2-aminocyclohexylamino)-2-(m-tolylamino)benzamide]", "IC50": "> 1000 nM"},
      {"smiles": "NC(=O)c1ccc(N[C@@H]2CCCC[C@@H]2N)nc1Nc1ccc2[nH]ncc2c1", "note": "(relative stereo) [Example 141, 6-(cis-2-aminocyclohexylamino)-2-(1H-indazol-5-ylamino)nicotinamide]", "IC50": "1 to 10 nM"},
      {"smiles": "NC(=O)c1cc(F)c(N[C@@H]2CCCC[C@@H]2N)nc1Nc1cnc2nccnc2c1", "note": "[Example 77, 6-((1R,2S)-2-aminocyclohexylamino)-5-fluoro-2-(pyrido[3,2-b]pyrazin-7-ylamino)nicotinamide]", "IC50": "10 to 100 nM"},
      {"smiles": "NC(=O)c1ccc(N[C@@H]2CCCC[C@@H]2N)nc1Nc1cncc(-n2ccnc2)c1", "note": "[Example 161, 2-(5-(1H-imidazol-1-yl)pyridin-3-ylamino)-6-((1R,2S)-2-aminocyclohexylamino)nicotinamide]", "IC50": "1 to 10 nM"},
      {"smiles": "NC(=O)c1ccc(N[C@@H]2CCCC[C@@H]2N)nc1Nc1ccc2c(c1)OCO2", "note": "[Example 255]", "IC50": "1 to 10 nM and 10 to 100 nM"},
      {"smiles": "Cc1cncc(Nc2nc(N[C@@H]3CCCC(F)(F)[C@@H]3N)c(F)cc2C(N)=O)c1", "note": "[Example 332, 6-((1R,2R)-2-amino-3,3-difluorocyclohexylamino)-5-fluoro-2-(5-methylpyridin-3-ylamino)nicotinamide]", "IC50": "100 to 1000 nM"},
      {"smiles": "NC(=O)c1cc(F)c(N[C@@H]2CCCC[C@@H]2N)nc1Nc1ccc2nccn2c1", "note": "[Example 61, 6-((1R,2S)-2-aminocyclohexylamino)-5-fluoro-2-(imidazo[1,2-a]pyridin-6-ylamino)nicotinamide]", "IC50": "1 to 10 nM"}
    ]}
  ]
}
